# Results taken from the supplement of paper PMC6045584.
# ± gives the standard deviation of the averaged measurements.
# Key:
# [1] = compound: CN(Cc1cnc2nc(N)nc(N)c2n1)c1ccc(C(=O)N[C@@H](CCC(=O)O)C(=O)O)cc1 [METHOTREXATE]; assay: surviving fraction relative to DMSO-only wells; higher = less growth inhibition; conditions: exposure time: 5 days
# Method in brief: (§1)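 Luminescence normalised to the median of DMSO-only wells defines surviving fraction, with viability read by CellTiter-Glo. Signal was recorded after 10 minutes at room temperature, once log-phase tumour cell lines seeded at 250–500 cells per well in 384-well plates had spent 24 hours settling and then five days under continuous exposure to inhibitors at 0.5, 1, 5, 10, 50, 100, 500 and 1000 nM.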
# [2] = compound: COc1cc(CCc2cc(NC(=O)c3ccc(N4CC(C)NC(C)C4)cc3)n[nH]2)cc(OC)c1 [AZD4547]; assay: as above; conditions: exposure time: 5 days
# Method in brief: as §1
Test System,surviving fraction ([1]; 0.5 nM),surviving fraction ([1]; 1 nM),surviving fraction ([1]; 5 nM),surviving fraction ([1]; 10 nM),surviving fraction ([1]; 50 nM),surviving fraction ([1]; 100 nM),surviving fraction ([1]; 500 nM),surviving fraction ([1]; 1000 nM),surviving fraction ([2]; 0.5 nM),surviving fraction ([2]; 1 nM),surviving fraction ([2]; 5 nM),surviving fraction ([2]; 10 nM),surviving fraction ([2]; 50 nM),surviving fraction ([2]; 100 nM),surviving fraction ([2]; 500 nM),surviving fraction ([2]; 1000 nM)
SG27 HEADNECK,1.1 ± 0.043,1.15 ± 0.15,1.09 ± 0.13,0.944 ± 0.15,1.07 ± 0.034,1.25 ± 0.021,1.12 ± 0.12,1.17 ± 0.07,0.937 ± 0.05,0.959 ± 0.078,0.864 ± 0.027,0.82 ± 0.024,0.68 ± 0.069,0.791 ± 0.032,0.849 ± 0.027,0.943 ± 0.098
SG28 HEADNECK,1.06 ± 0.059,1.06 ± 0.02,1.07 ± 0.09,1.14 ± 0.088,1.04 ± 0.017,1.12 ± 0.087,1.123 ± 0.011,0.976 ± 0.084,0.977 ± 0.13,1.14 ± 0.023,1.07 ± 0.093,0.982 ± 0.026,0.959 ± 0.048,1.04 ± 0.087,1.01 ± 0.077,0.706 ± 0.057
SG31 HEADNECK,1.14 ± 0.19,1.21 ± 0.037,1.07 ± 0.1,1.31 ± 0.22,1.16 ± 0.2,1.18 ± 0.19,1.26 ± 0.2,1.21 ± 0.024,1.21 ± 0.24,0.886 ± 0.12,0.994 ± 0.15,1.01 ± 0.17,0.836 ± 0.07,0.856 ± 0.12,0.883 ± 0.049,0.958 ± 0.051
SG32 HEADNECK,0.946 ± 0.11,1.5 ± 0.84,1.19 ± 0.16,1.25 ± 0.34,0.899 ± 0.039,1.02 ± 0.2,1.1 ± 0.14,0.954 ± 0.078,0.915 ± 0.25,1 ± 0.15,0.925 ± 0.2,0.938 ± 0.083,1.04 ± 0.031,0.946 ± 0.032,0.968 ± 0.3,0.659 ± 0.056
SG43 HEADNECK,0.924 ± 0.046,1.01 ± 0.21,0.917 ± 0.18,0.915 ± 0.16,0.881 ± 0.092,0.678 ± 0.091,0.909 ± 0.15,0.84 ± 0.055,1.02 ± 0.37,0.896 ± 0.17,0.714 ± 0.13,0.8 ± 0.13,0.759 ± 0.099,0.696 ± 0.14,0.94 ± 0.11,0.731 ± 0.074
SIHA CERVIX,1.05 ± 0.02,1.14 ± 0.048,1.07 ± 0.085,1.1 ± 0.017,0.8 ± 0.014,0.835 ± 0.034,0.787 ± 0.018,0.782 ± 0.014,1.06 ± 0.037,1.08 ± 0.05,1.11 ± 0.066,0.985 ± 0.025,0.839 ± 0.079,0.895 ± 0.054,0.786 ± 0.06,0.785 ± 0.052
SJSA1 BONE,1.62 ± 0.029,1.63 ± 0.05,1.61 ± 0.075,1.67 ± 0.14,1.7 ± 0.065,1.79 ± 0.12,1.64 ± 0.1,1.88 ± 0.062,1.01 ± 0.028,1.08 ± 0.08,1.08 ± 0.076,1.09 ± 0.046,1.14 ± 0.036,1.06 ± 0.05,1.01 ± 0.041,0.975 ± 0.075
SKBR3 BREAST,1.02 ± 0.024,1.11 ± 0.027,1.11 ± 0.1,1.04 ± 0.12,0.784 ± 0.13,0.629 ± 0.038,0.503 ± 0.1,0.512 ± 0.13,1.07 ± 0.14,1.2 ± 0.05,1.04 ± 0.079,1.09 ± 0.13,1.15 ± 0.13,1.26 ± 0.13,1.16 ± 0.18,1.11 ± 0.13
SNU475 LIVER,1.04 ± 0.056,1.05 ± 0.05,1.05 ± 0.018,0.924 ± 0.01,0.822 ± 0.13,0.854 ± 0.072,0.875 ± 0.047,0.843 ± 0.11,0.956 ± 0.021,1.02 ± 0.059,0.95 ± 0.024,0.972 ± 0.056,0.925 ± 0.047,0.948 ± 0.019,0.939 ± 0.053,0.894 ± 0.012
SUM44 BREAST,1.31 ± 0.48,1.29 ± 0.48,1.23 ± 0.36,1.23 ± 0.39,1.33 ± 0.5,1.17 ± 0.38,0.819 ± 0.25,0.802 ± 0.29,0.9847 ± 0.0095,1.02 ± 0.029,0.985 ± 0.042,1.08 ± 0.064,1.11 ± 0.019,1.06 ± 0.011,1.09 ± 0.066,1.07 ± 0.05
SUM149 BREAST,1.05 ± 0.075,1.13 ± 0.12,1.1 ± 0.087,1.06 ± 0.036,0.848 ± 0.074,0.751 ± 0.057,0.746 ± 0.027,0.781 ± 0.058,0.989 ± 0.054,1.05 ± 0.11,1.08 ± 0.017,1 ± 0.034,1.04 ± 0.072,0.989 ± 0.05,1.02 ± 0.073,0.916 ± 0.047
SUM149.B1*.S BREAST,1.09 ± 0.065,1.12 ± 0.042,1.06 ± 0.036,1.09 ± 0.041,0.854 ± 0.035,0.767 ± 0.052,0.716 ± 0.046,0.733 ± 0.0095,1.05 ± 0.013,1.083 ± 0.01,1.09 ± 0.04,1.09 ± 0.035,1.05 ± 0.083,1.07 ± 0.018,1.07 ± 0.054,1.07 ± 0.077
SUM159 BREAST,1.1 ± 0.027,1.09 ± 0.036,1.1 ± 0.049,1.09 ± 0.029,1.03 ± 0.038,0.951 ± 0.018,0.884 ± 0.013,0.897 ± 0.02,1.16 ± 0.24,1.19 ± 0.22,1.15 ± 0.2,1.2 ± 0.23,1.15 ± 0.2,1.14 ± 0.2,1.22 ± 0.27,1.1 ± 0.15
SYO1 SYNOVIAL,0.991 ± 0.03,0.983 ± 0.047,0.984 ± 0.041,0.991 ± 0.074,0.419 ± 0.024,0.285 ± 0.0055,0.284 ± 0.02,0.281 ± 0.011,0.897 ± 0.051,0.942 ± 0.022,0.744 ± 0.037,0.737 ± 0.021,0.664 ± 0.012,0.686 ± 0.02,0.637 ± 0.041,0.556 ± 0.046
T47D BREAST,1.12 ± 0.013,1.12 ± 0.073,1.07 ± 0.025,0.9393 ± 0.0076,0.562 ± 0.033,0.406 ± 0.065,0.33 ± 0.025,0.339 ± 0.024,1.02 ± 0.044,1.05 ± 0.013,1.06 ± 0.043,1.04 ± 0.034,1.09 ± 0.018,1.12 ± 0.025,1.18 ± 0.03,1.2 ± 0.073
U2OS BONE,1 ± 0.045,1.02 ± 0.039,1.04 ± 0.051,0.31 ± 0.0076,0.672 ± 0.01,0.669 ± 0.014,0.636 ± 0.016,0.625 ± 0.026,0.992 ± 0.042,1.024 ± 0.0069,0.95 ± 0.015,0.901 ± 0.024,0.777 ± 0.013,0.759 ± 0.029,0.711 ± 0.012,0.648 ± 0.0075
VCAP PROSTATE,0.961 ± 0.06,0.984 ± 0.036,1.02 ± 0.094,1.07 ± 0.11,1.03 ± 0.079,1.07 ± 0.062,1.02 ± 0.078,1 ± 0.058,0.966 ± 0.078,0.976 ± 0.043,1.1 ± 0.12,0.989 ± 0.12,0.948 ± 0.07,1.07 ± 0.07,0.795 ± 0.048,0.705 ± 0.065
VP229 BREAST,1.13 ± 0.076,1.12 ± 0.15,1.14 ± 0.05,1.15 ± 0.13,1.25 ± 0.15,1.08 ± 0.12,1.12 ± 0.12,1.14 ± 0.053,1.32 ± 0.12,1.38 ± 0.049,1.42 ± 0.099,1.38 ± 0.065,1.25 ± 0.1,1.42 ± 0.092,1.4 ± 0.25,1.32 ± 0.033
YAMATO SYNOVIAL,1.18 ± 0.13,1.05 ± 0.089,1.25 ± 0.17,0.532 ± 0.058,0.685 ± 0.065,0.587 ± 0.05,0.584 ± 0.046,0.604 ± 0.048,1.19 ± 0.024,1.22 ± 0.074,1.25 ± 0.038,1.22 ± 0.046,1.16 ± 0.064,1.08 ± 0.045,0.911 ± 0.05,0.816 ± 0.048
ZR751 BREAST,1 ± 0.11,1.1 ± 0.14,0.975 ± 0.057,1.29 ± 0.21,0.715 ± 0.077,0.69 ± 0.088,0.707 ± 0.044,0.741 ± 0.011,0.902 ± 0.092,0.949 ± 0.095,0.838 ± 0.076,0.887 ± 0.041,0.837 ± 0.15,1.01 ± 0.029,1.05 ± 0.093,0.971 ± 0.059
